We go through two compounds from ChEMBL document CHEMBL1152932, “Inhibitory effects of phloroglucinol derivatives isolated from Ecklonia stolonifera on Fc(epsilon)RI expression” (Bioorg Med Chem, 2009).

Experiment [1] addresses T1, High affinity immunoglobulin epsilon receptor subunit alpha (Homo sapiens) (UniProt P12319).
T1 sequence (whole entry): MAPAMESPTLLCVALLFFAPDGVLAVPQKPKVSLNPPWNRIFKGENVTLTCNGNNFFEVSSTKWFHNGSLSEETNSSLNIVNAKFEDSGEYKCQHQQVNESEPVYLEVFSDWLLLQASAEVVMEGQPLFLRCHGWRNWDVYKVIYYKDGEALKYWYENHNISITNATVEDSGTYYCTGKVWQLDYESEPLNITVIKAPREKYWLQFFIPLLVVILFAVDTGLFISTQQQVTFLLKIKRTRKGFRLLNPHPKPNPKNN
The experiment can be described thus: Inhibition of Fc-epsilonR1-mediated histamine release in anti-human Fc-epsilonR1 antibody-stimulated human KU-812F cells by spectrofluorimetry. The class given is cell-based.

For experiment [2], the target named is T1, High affinity immunoglobulin epsilon receptor subunit alpha (Homo sapiens). In words: Inhibition of Fc-epsilonR1-mediated [Ca2+]i elevation in anti-human Fc-epsilonR1 antibody-stimulated human KU-812F cells. Format: cell-based.
Experiment [3] relates to KU-812F. The experiment can be described thus: Inhibition of Fc-epsilonR1 protein expression in anti-human Fc-epsilonR1 antibody-stimulated human KU-812F cells after 24 hrs by Western blotting. The class given is functional, cell-based.
Experiment [4] relates to KU-812F. The experiment can be described thus: Inhibition of Fc-epsilonR1 alpha mRNA expression in anti-human Fc-epsilonR1 antibody-stimulated human KU-812F cells after 24 hrs by RT-PCR. Format: functional, cell-based.
Experiment [5] can be described thus: Inhibition of Fc-epsilonR1 expression in anti-human Fc-epsilonR1 antibody-stimulated human KU-812F cells at 50 uM after 24 hrs by flow cytometry. Format: functional.
Experiment [6] in a line: Inhibition of Fc-epsilonR1 expression in anti-human Fc-epsilonR1 antibody-stimulated human KU-812F cells at 5 uM after 24 hrs by flow cytometry. The class given is functional. A general note: Flow cytometry measures light scatter and fluorescence of single cells or particles in a stream.
The nature of experiment [7]: Inhibition of Fc-epsilonR1 expression in anti-human Fc-epsilonR1 antibody-stimulated human KU-812F cells at 25 uM after 24 hrs by flow cytometry. Format: functional.
Experiment [8] can be described thus: Inhibition of Fc-epsilonR1 expression in anti-human Fc-epsilonR1 antibody-stimulated human KU-812F cells at 10 uM after 24 hrs by flow cytometry. The class given is functional.

Turning to `Oc1cc(O)cc(Oc2c(O)cc(O)c3c2Oc2c(O)cc4oc5c(Oc6cc(O)cc(O)c6)c(O)cc(O)c5c4c2O3)c1`, the Activity result (in experiment [1]; in experiment [2]; in the experiment with KU-812F [3]; in the experiment with KU-812F [4]) was “Dose-dependent effect” throughout.
One may read the inhibition as the change of the read-out against control, counted positive when it falls. For `Oc1cc(O)c2oc3cc(O)c4oc5cc(O)cc(O)c5oc4c3oc2c1` [DIOXINODEHYDROECKOL], the inhibition at 50 µM in experiment [5] was found to be 16.9%. In experiment [6], the inhibition at 5 µM was determined as 25.2%. In addition, the Activity entry (in experiment [1]; in experiment [2]; in the experiment on KU-812F [3]; in the experiment on KU-812F [4]) was “Dose-dependent effect” throughout. Testing at 25 µM in experiment [7] gave an inhibition of 19.5%. The compound further showed an inhibition at 10 µM in experiment [8] of 23.1%.
